Measured values taken from US9096591B2, “Tetracyclic compounds” (Medivation Technologies, Inc., priority 2007, dated 2015).
Read-outs that look alike come from different tables or passages of the source.

Tests used:
[1] = target: T1, human recombinant serotonin (5-Hydroxytryptamine) 5-HT6 receptor (Homo sapiens, UniProt P50406); assay: Serotonin 5-HT6 radioligand binding ([3H]LSD); parameters: Inhibition of ligand binding, Ser. 5-HT6: concentration or dose not given beside the values; settings: for Inhibition of ligand binding, Ser. 5-HT6: percent inhibition of specific binding
T1 construct: expressed in transfected cells; host or cells: human HeLa cells
T1 sequence (P50406 whole entry): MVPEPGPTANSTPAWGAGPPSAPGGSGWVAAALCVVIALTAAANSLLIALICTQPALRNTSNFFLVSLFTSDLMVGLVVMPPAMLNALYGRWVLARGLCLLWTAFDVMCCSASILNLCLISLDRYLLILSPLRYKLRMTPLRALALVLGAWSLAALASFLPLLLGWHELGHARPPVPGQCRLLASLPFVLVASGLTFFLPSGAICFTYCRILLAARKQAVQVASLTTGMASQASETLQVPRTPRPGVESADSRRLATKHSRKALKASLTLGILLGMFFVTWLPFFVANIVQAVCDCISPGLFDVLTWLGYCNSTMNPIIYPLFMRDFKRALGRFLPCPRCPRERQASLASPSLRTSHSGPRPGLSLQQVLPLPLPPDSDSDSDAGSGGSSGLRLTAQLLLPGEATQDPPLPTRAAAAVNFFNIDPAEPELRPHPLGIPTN
Excerpt: Receptor proteins were filtered and washed, the filters were then counted to determine [3H]LSD specifically bound. […] Biochemical assay results are presented as the percent inhibition of specific binding in Table 6.

[2] = target: T2, human recombinant adrenergic α1D receptor (Homo sapiens, UniProt P25100); assay: Adrenergic α1D radioligand binding ([3H]Prozosin); parameters: Inhibition of ligand binding, Adren. alpha1D: concentration or dose not given beside the values; settings: for Inhibition of ligand binding, Adren. alpha1D: percent inhibition of specific binding
T2 construct: expressed in transfected cells; host or cells: HEK-293 cells
T2 sequence (P25100 1-572): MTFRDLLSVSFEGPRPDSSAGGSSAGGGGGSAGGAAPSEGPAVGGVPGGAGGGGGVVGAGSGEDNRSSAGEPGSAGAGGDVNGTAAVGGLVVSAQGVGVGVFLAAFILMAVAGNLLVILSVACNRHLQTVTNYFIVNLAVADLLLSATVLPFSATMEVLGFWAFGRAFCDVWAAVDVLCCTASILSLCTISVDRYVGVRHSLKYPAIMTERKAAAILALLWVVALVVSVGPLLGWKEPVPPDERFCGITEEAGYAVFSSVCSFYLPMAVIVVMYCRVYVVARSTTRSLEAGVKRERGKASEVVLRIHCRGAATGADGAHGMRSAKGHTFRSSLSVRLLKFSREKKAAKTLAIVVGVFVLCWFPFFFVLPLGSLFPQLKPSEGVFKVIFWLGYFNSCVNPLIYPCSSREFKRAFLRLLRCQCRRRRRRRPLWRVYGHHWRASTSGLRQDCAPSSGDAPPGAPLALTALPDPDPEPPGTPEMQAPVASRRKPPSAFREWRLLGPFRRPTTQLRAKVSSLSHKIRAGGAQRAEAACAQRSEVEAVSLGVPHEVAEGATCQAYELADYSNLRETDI
Description: Compounds of invention were incubated with 0.6 nM [^3H]Prozosin for 60 minutes at 25° C. Non-specific binding was estimated in the presence of 10 μM phentolamine. Receptor proteins were filtered and washed, the filters were then counted to determine [^3H]Prozosin specifically bound. […] Biochemical assay results are presented as the percent inhibition of specific binding in Table 6.

[3] = target: T3, human recombinant histamine H1 receptor (Homo sapiens, UniProt P35367); assay: Histamine H1 radioligand binding ([3H]Pyrilamine)
T3 construct: expressed in transfected cells; host or cells: CHO cells
T3 sequence (P35367 whole entry): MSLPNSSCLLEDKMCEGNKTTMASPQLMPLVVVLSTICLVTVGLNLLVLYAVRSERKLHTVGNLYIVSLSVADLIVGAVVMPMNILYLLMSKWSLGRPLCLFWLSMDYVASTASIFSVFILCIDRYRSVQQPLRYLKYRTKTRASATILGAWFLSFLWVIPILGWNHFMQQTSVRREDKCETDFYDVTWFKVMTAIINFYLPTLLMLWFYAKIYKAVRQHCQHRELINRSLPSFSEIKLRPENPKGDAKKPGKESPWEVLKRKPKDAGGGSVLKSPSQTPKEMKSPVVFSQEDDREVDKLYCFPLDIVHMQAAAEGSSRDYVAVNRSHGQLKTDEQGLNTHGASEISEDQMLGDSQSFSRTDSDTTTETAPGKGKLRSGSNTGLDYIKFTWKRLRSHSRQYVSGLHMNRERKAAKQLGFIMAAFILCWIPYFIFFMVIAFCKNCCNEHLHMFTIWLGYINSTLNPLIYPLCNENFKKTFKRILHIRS
Summary of the method: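 CHO-expressed receptor in modified Tris-HCl buffer (50 mM, pH 7.4; 2 mM MgCl2, 100 mM NaCl, 250 mM sucrose); bound ligand measured after filtration and washing.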

[4] = target: T4, human recombinant serotonin (5-Hydroxytryptamine) 5-HT2A receptor (Homo sapiens, UniProt P28223); assay: Serotonin 5-HT2A radioligand binding ([3H]Ketanserin); settings: for Inhibition of ligand binding, Ser. 5-HT2A: percent inhibition of specific binding
T4 construct: expressed in transfected cells; host or cells: CHO-K1 cells
T4 sequence (P28223 whole entry): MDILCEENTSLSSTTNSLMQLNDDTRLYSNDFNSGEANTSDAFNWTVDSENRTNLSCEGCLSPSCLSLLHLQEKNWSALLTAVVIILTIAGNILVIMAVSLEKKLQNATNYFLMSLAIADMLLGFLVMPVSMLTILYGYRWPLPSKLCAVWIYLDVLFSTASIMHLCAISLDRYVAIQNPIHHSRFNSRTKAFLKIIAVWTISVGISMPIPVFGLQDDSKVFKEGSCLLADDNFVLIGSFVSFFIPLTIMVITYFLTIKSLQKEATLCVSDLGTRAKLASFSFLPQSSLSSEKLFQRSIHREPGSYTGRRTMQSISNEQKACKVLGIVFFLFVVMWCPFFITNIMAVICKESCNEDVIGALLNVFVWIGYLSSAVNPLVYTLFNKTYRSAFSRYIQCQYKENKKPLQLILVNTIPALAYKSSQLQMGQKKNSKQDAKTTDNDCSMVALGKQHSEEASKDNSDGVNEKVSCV
Description: Compounds of the invention were incubated with 0.5 nM [^3H]Ketanserin for 60 minutes at 25° C. Non-specific binding was estimated in the presence of 1 μM Mianserin. Receptor proteins were filtered and washed, the filters were then counted to determine [^3H]Ketanserin specifically bound. […] Biochemical assay results are presented as the percent inhibition of specific binding in Table 6.

[5] = target: T5, human recombinant adrenergic α2B receptor (Homo sapiens, UniProt P18089); assay: Adrenergic α2B radioligand binding ([3H]Rauwolscine); parameters: Inhibition of ligand binding, Adren. alpha2B: concentration or dose not given beside the values; settings: for Inhibition of ligand binding, Adren. alpha2B: percent inhibition of specific binding
T5 construct: expressed in transfected cells; host or cells: CHO-K1 cells
T5 sequence (P18089 1-450): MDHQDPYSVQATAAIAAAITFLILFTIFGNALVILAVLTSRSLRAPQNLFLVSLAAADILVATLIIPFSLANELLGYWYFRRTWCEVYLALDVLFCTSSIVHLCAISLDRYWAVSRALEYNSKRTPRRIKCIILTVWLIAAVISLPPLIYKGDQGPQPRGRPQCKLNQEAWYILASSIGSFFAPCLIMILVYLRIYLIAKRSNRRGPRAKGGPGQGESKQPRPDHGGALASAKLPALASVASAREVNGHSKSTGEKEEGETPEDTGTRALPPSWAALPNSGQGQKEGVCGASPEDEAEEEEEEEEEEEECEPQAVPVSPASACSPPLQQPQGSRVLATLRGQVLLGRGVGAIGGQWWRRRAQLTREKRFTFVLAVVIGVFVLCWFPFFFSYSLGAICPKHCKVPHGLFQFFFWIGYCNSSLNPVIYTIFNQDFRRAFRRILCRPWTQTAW
Description: To evaluate in radioligand binding assays the activity of compounds of the invention, human recombinant adrenergic α2B receptor expressed in Chinese hamster ovary (CHO-K1) cells (Uhlen S et al. Eur J. Pharmacol. 343(1):93, 1998) in a modified Tris-HCl buffer (50 mM Tris-HCl, pH 7.4, 12.5 mM MgCl2, 1 mM EDTA, 0.2% BSA) was used. Compounds of the invention were incubated with 2.5 nM [^3H]Rauwolscine for 60 minutes at 25° C. Non-specific binding was estimated in the presence of 10 μM Prozosin. Receptor proteins were filtered and washed, the filters were then counted to determine [^3H]Rauwolscine specifically bound. […] Biochemical assay results are presented as the percent inhibition of specific binding in Table 6.

[6] = target: T6, human recombinant dopamine D2L receptor (Homo sapiens, UniProt P14416); assay: Dopamine D2L radioligand binding ([3H]Spiperone); settings: percent inhibition of specific binding
T6 construct: expressed in transfected cells; host or cells: CHO cells
T6 sequence (P14416 whole entry): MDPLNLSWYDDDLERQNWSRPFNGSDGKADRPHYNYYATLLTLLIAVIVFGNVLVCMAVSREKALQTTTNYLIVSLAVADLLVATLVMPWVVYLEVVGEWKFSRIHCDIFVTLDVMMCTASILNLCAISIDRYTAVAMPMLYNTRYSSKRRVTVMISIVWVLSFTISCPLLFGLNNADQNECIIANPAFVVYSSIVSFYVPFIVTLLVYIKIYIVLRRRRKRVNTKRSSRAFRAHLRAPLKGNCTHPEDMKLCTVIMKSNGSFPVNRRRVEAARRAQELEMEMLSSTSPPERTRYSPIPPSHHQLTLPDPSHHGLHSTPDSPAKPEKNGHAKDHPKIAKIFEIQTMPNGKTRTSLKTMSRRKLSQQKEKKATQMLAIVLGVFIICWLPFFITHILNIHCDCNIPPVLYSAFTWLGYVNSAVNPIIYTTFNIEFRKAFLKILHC
Description: Non-specific binding was estimated in the presence of 10 μM Haloperidol. Receptor proteins were filtered and washed, the filters were then counted to determine [^3H]Spiperone specifically bound. […] Biochemical assay results are presented as the percent inhibition of specific binding in Table 6.

[7] = 1 μM compound, […] [3H]Pyrilamine, read-out: Histamine Binding H1, percent inhibition of specific binding
[8] = percent inhibition of specific binding, screened at 1 μM, read-out: Inhibition of ligand binding, Hist. H1

Inhibition of ligand binding, Dop. D2L [6] | Compound | Inhibition of ligand binding, Ser. 5-HT6 [1] | Inhibition of ligand binding, Adren. alpha1D [2] | inhibition at 1 µM [3, 7] | inhibition at 1 µM [3, 8] | Inhibition of ligand binding, Ser. 5-HT2A [4] | Inhibition of ligand binding, Adren. alpha2B [5] | Ser. 5-HT6 ([1]; inhibition profile) | Adren. alpha1D ([2]; inhibition profile) | Hist. H1 ([3]; inhibition profile) | Ser. 5-HT2A ([4]; inhibition profile) | Adren. alpha2B ([5]; inhibition profile)
– | CCN1CCc2c(c3cc(C)ccc3n2Cc2ccc(C)nc2)C1 [Compound 138, 2-ethyl-2,3,4,5-tetrahydro-8-methyl-5-((6-methylpyridin-3-yl)methyl)-1H-pyrido[4,3-b]indole] | 22% | 33% | 68% | 68% | 14% | 19% | – | – | – | – | –
– | Cc1ccc2c(c1)c1c(n2Cc2ccc(C)nc2)CCN(C)C1 [Compound 139, 2,3,4,5-tetrahydro-2,8-dimethyl-5-((6-methylpyridin-3-yl)methyl)-1H-pyrido[4,3-b]indole] | 39% | 25% | 81% | 74% | 2% | 52% | – | – | – | – | –
– | CCN1CCc2c(c3cc(C)ccc3n2Cc2ccccc2)C1 [Compound 140, 5-benzyl-2-ethyl-2,3,4,5-tetrahydro-8-methyl-1H-pyrido[4,3-b]indole] | 8% | 14% | 15% | 15% | −3% | −4% | – | – | – | – | –
– | Cc1ccc2c(c1)c1c(n2CCN2CCCC2)CCN(C)C1 [Compound 221, 2,3,4,5-tetrahydro-2,8-dimethyl-5-(2-(pyrrolidin-1-yl)ethyl)-1H-pyrido[4,3-b]indole] | 29% | 30% | 78% | 78% | 46% | 26% | – | – | – | – | –
– | Cc1ccc2c(c1)c1c(n2CCc2ccc(C)nc2)CCNC1 [Compound 230, 2,3,4,5-tetrahydro-8-methyl-5-(2-(6-methylpyridin-3-yl)ethyl)-1H-pyrido[4,3-b]indole] | 45% | 75% | 46% | 93% | 33% | 104% | – | – | – | – | –
– | Cc1ccc2c(c1)c1c(n2CCC(=O)N2CCC(N)CC2)CCN(C)C1 [Compound 231, 1-(4-aminopiperidin-1-yl)-3-(1,2,3,4-tetrahydro-2,8-dimethylpyrido[4,3-b]indol-5-yl)propan-1-one] | 3% | 21% | -11% | -11% | 5% | 11% | – | – | – | – | –
– | Cc1ccc2c(c1)c1c(n2CCc2ccc(C)nc2)C(Br)C(=O)N(C)C1 (stereo not drawn) [Compound 232, 4-bromo-1,2-dihydro-2,8-dimethyl-5-(2-(6-methylpyridin-3-yl)ethyl)-4H-pyrido[4,3-b]indol-3(5H)-one] | −7% | 5% | -6% | -6% | −10% | 8% | – | – | – | – | –
– | Cc1ccc2c(c1)c1c(n2CCCc2ccccn2)CCN(C)C1 [Compound 233, 2,3,4,5-tetrahydro-2,8-dimethyl-5-(3-(pyridin-2-yl)propyl)-1H-pyrido[4,3-b]indole] | 95% | 49% | 99% | 99% | 92% | 96% | – | – | – | – | –
1% | CN1CCc2c(c3cc(Cl)ccc3n2CC(=O)N2CCCCC2)C1 [Compound 236, 2-(8-chloro-1,2,3,4-tetrahydro-2-methylpyrido[4,3-b]indol-5-yl)-1-(piperidin-1-yl)ethanone] | 18% | 10% | 42% | 42% | – | 9% | – | – | – | – | –
−1% | CC1CCN(C(=O)Cn2c3c(c4cc(Cl)ccc42)CN(C)CC3)CC1 [Compound 237, 2-(8-chloro-1,2,3,4-tetrahydro-2-methylpyrido[4,3-b]indol-5-yl)-1-(4-methylpiperidin-1-yl)ethanone] | 20% | 14% | 77% | 77% | – | 12% | – | – | – | – | –
– | Cc1ccc2c(c1)c1c(n2CCc2ccc(C(=O)O)nc2)CCN(C)C1 [Compound 255] | 2% | 2% | 71% | 71% | 1% | 4% | – | – | – | – | –
– | Cc1ccc(CCn2c3c(c4cc(C(=O)O)ccc42)CNCC3)cn1 [Compound 274, 2,3,4,5-tetrahydro-5-(2-(6-methylpyridin-3-yl)ethyl)-1H-pyrido[4,3-b]indole-8-carboxylic acid] | −2% | −16% | – | 1% | 6% | 9% | – | – | – | – | –
– | CN1CCc2c(c3ccccc3n2CCc2ccccn2)C1 [Compound 329, 2,3,4,5-tetrahydro-2-methyl-5-(2-(pyridin-2-yl)ethyl)-1H-pyrido[4,3-b]indole] | 15% | 4% | – | 18% | 70% | 68% | – | – | – | – | –
– | Cc1ccc2c(c1)c1c(n2CCc2ccc(C)nc2)CC[N+](C)([O-])C1 (stereo not drawn) [Example 93, 2,8-dimethyl-5-(2-(6-methylpyridin-3-yl)ethyl)-2,3,4,5-tetrahydro-1H-pyrido[4,3-b]indole 2-oxide] | – | – | – | – | – | – | 11 | 19 | 68 | 4 | 36
